This passage reports Ki, IC50 and inhibition results from ChEMBL document CHEMBL2321687, “Identification of a novel arylpiperazine scaffold for fatty acid amide hydrolase inhibition with improved drug disposition properties” (Bioorg Med Chem Lett, 2013).

Calls of active or inactive are those of the source. The rule behind the calls is not given here.

Experiment [1] has as its target T1, Fatty-acid amide hydrolase 1 (Mus musculus, UniProt O08914).
T1 sequence (O08914 whole entry): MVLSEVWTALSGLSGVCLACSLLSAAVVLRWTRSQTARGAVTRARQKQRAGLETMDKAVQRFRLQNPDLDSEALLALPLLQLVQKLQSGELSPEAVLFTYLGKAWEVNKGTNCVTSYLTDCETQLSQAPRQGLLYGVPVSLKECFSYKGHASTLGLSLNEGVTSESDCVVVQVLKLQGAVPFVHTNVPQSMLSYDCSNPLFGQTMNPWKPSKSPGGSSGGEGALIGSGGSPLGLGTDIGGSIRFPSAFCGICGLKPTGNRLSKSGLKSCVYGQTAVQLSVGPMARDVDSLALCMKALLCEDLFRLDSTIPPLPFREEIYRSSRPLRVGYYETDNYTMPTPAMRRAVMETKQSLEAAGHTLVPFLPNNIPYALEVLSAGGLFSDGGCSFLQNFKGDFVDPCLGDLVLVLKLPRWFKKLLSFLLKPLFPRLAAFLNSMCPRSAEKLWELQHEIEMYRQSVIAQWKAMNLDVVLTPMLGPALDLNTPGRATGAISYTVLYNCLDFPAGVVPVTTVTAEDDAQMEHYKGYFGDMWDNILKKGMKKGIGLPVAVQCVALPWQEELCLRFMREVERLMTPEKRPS
Nature of the experiment: Inhibition of FAAH in mouse brain homogenate using [3Hethanolamine]AEA as substrate incubated for 20 mins prior to substrate addition measured after 15 mins by beta counting analysis. It counts as tissue-based.

Experiment [2] has as its target T2, Fatty-acid amide hydrolase 1 (Homo sapiens, UniProt O00519).
T2 sequence (O00519 whole entry): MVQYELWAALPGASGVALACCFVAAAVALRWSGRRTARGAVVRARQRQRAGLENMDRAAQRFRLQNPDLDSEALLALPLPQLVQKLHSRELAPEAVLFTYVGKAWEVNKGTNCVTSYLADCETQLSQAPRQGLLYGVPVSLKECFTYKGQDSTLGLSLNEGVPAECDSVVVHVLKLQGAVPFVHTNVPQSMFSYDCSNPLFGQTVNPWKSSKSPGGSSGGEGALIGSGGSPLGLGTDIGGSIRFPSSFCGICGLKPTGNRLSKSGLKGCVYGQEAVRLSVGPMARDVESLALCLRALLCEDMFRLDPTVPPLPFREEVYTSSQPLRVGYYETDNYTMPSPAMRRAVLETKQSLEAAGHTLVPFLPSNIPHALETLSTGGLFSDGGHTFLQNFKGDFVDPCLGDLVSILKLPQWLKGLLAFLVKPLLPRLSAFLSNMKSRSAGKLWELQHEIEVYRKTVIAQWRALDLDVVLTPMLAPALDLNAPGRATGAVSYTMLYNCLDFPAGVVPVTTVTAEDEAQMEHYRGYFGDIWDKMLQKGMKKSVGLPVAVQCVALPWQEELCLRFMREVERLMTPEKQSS
Nature of the experiment: Inhibition of human FAAH using [3Hethanolamine]AEA as substrate incubated for 20 mins prior to substrate addition measured after 15 mins by beta counting analysis.

Experiment [3] has as its target Fatty-acid amide hydrolase 1 (Mus musculus) (UniProt O08914). The experiment can be described thus: Reversible noncompetitive inhibition of FAAH in mouse brain homogenate using [3Hethanolamine]AEA as substrate incubated for 20 mins prior to dialysis for 18 hrs followed by substrate addition measured after 15 mins. The experiment is classed as tissue-based.

One may read the Ki as the equilibrium dissociation constant of an inhibitor or competing ligand from its target. Read a low Ki as a stronger hold on the target. On to `Fc1ccc(OCCCCOc2cccc(N3CCNCC3)c2)cc1`, for which, in experiment [1], the inhibition constant Ki was above 0.5 µM. Still for that read-out and setting: under `NC(=O)c1ccn(-c2cccc(N3CCN(C(=O)NCCCCCCc4ccccc4)CC3)c2)c1` stands above 0.5 µM. As usually defined, the IC50 is the concentration that gives 50% inhibition. `NC(=O)c1ccn(-c2cccc(N3CCN(CCCCCCc4ccccc4)CC3)c2)c1`: the concentration for half-maximal inhibition (IC50) in experiment [2] is above 1 µM. In addition, affinity in experiment [1] was put at a Ki of 0.01 µM. In addition, the inhibition entry in experiment [3] is “Active”. Consider `NC(=O)c1ccn(-c2cccc(C(=O)N3CCN(CCCCCCc4ccccc4)CC3)c2)c1`, for which the inhibition constant (Ki) in experiment [1] is above 0.5 µM.

On to `C/C(=N\OC(=O)N1CCCCC1)c1cccc(N2CCN(C)CC2)c1`, for which the inhibition constant Ki in experiment [1] is above 0.5 µM. On the same count and under the same terms, under `O=C(NCCCCCCc1ccccc1)N1CCN(c2cccc(-n3cccc3)c2)CC1` stands 0.263 µM; under `N#Cc1ccn(-c2cccc(N3CCN(CCCCCCc4ccccc4)CC3)c2)c1`, 0.27 µM; under `CCCCOc1ccc(NC(=O)Oc2cccc(N3CCNCC3)c2)cc1`, above 0.5 µM.

Regarding `CN1CCN(c2cccc(OC(=O)NCCCCCCc3ccccc3)c2)CC1`, the affinity in experiment [1], expressed as Ki, was 0.24 µM. `O=C(NCCCCCCc1ccccc1)Oc1cccc(N2CCNCC2)c1`: in experiment [2], it took 0.044 µM to reach half-maximal inhibition (IC50). The Ki in experiment [2] came out at 0.026 µM; in experiment [1], 0.013 µM. Also, the inhibition result in experiment [3] was “Active”.
